Measured values taken from PubChem BioAssay (NCI).
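The compound was tested at five concentrations on cells cultured in 96-well plates, with a 48-hour exposure period. The concentration for 50% growth inhibition is given as GI50. Definition used: TGI = concentration required for complete inhibition of growth.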

Experiments:
Assay in all cases: inhibition of tumour cell growth, NCI panel, 48 h
[1] = test system: XF 498 CNS
[2] = test system: 786-0 renal
[3] = test system: DMS 114 small cell lung
[4] = test system: DLD-1 colon
[5] = test system: DMS 273 small cell lung
[6] = test system: KM20L2 colon
[7] = test system: MDA-N
[8] = test system: PC-3 prostate
[9] = test system: DU-145 prostate
[10] = test system: MDA-MB-231 breast
[11] = test system: NCI/ADR-RES ovarian
[12] = test system: SR leukemia
[13] = test system: HS 578T breast
[14] = test system: MCF7 breast

Q: How did the TGI [1] turn out when `Cc1cc(=O)oc2c1cc(OCC(=O)OCCN1CCCCC1)c1occ(C)c12` was run?
A: > 100 µM

Q: And the TGI [2]?
A: > 100 µM

Q: What about the TGI [3] of the same compound?
A: > 100 µM

Q: And the TGI [4]?
A: > 100 µM

Q: And the TGI [5]?
A: > 100 µM

Q: And the TGI [6]?
A: > 100 µM

Q: Which results are given for `CCOC(=O)NC`?
A: TGI [7]: > 100 µM; TGI [2]: > 100 µM; TGI [8]: > 100 µM; TGI [9]: > 100 µM; TGI [10]: > 100 µM; TGI [11]: > 100 µM; TGI [12]: > 100 µM; TGI [13]: > 100 µM; TGI [14]: > 100 µM

Q: With `Cn1c(Sc2ccc(-c3cccnc3)n2C)ccc1-c1cccnc1` as the compound, how does the TGI [7] read?
A: 25.3 µM

Q: What about the TGI [2] of the same compound?
A: 43.5 µM

Q: What about the TGI [8] of the same compound?
A: 31 µM

Q: What about the TGI [9] of the same compound?
A: 33.5 µM

Q: And the TGI [10]?
A: 37.1 µM

Q: And the TGI [11]?
A: 71.3 µM

Q: What about the TGI [12] of the same compound?
A: 9.79 µM

Q: What about the TGI [13] of the same compound?
A: 9.76 µM

Q: And the TGI [14]?
A: 45.3 µM

Q: `O=C1c2ccccc2C(=O)c2c1ccc(C(=O)O)c2-c1ccc2ccccc2c1` was tested. Which TGI [7] did it give?
A: 79.2 µM

Q: What about the TGI [2] of the same compound?
A: > 100 µM

Q: And the TGI [8]?
A: 72.4 µM

Q: What about the TGI [9] of the same compound?
A: 46.6 µM

Q: And the TGI [10]?
A: 73.9 µM

Q: And the TGI [11]?
A: > 100 µM

Q: And the TGI [12]?
A: 51.6 µM

Q: And the TGI [13]?
A: 80.7 µM

Q: What about the TGI [14] of the same compound?
A: 81.8 µM

Q: Which results are given for `CCCCCCCCCCCCCCCCOCC(COP(=O)([O-])OCC[n+]1ccc(N(C)C)cc1)OCC` (stereo not drawn)?
A: TGI [7]: 30.8 µM; TGI [2]: 34.2 µM; TGI [9]: 30.1 µM; TGI [10]: 22.5 µM; TGI [12]: 23.9 µM; TGI [13]: 31.8 µM; TGI [14]: 36.1 µM

Q: What does the source list for `COc1cc2c(cc1Oc1ccc(OC)c3c1CC1c4c(cc(OC)c(OC)c4-3)CCN1C)CC1c3c(cc(OC)c(OC)c3-2)CCN1C` (stereo not drawn)?
A: TGI [1]: 4.29 µM; TGI [4]: 9.17 µM; TGI [5]: 7.06 µM; TGI [11]: 18.3 µM; TGI [6]: 3.59 µM; TGI [14]: 8.43 µM

Q: Which results are given for `NC(=O)Nc1cc(O)ccc1N=Nc1ccc(S(=O)(=O)Nc2ccccn2)cc1`?
A: TGI [1]: > 100 µM; TGI [3]: > 100 µM; TGI [5]: > 100 µM; TGI [6]: > 100 µM

Q: `COc1cc(C)c2c(=O)c3c(oc2c1)C(=O)c1c(O)c(OC)cc(O)c1C3=O` was tested. Which TGI [1] did it give?
A: 2.29 µM

Q: What about the TGI [3] of the same compound?
A: 1.72 µM

Q: And the TGI [4]?
A: 10.1 µM

Q: What about the TGI [5] of the same compound?
A: 1.8 µM

Q: And the TGI [11]?
A: 2.62 µM

Q: What about the TGI [6] of the same compound?
A: 19.9 µM

Q: What about the TGI [14] of the same compound?
A: 9.34 µM

Q: Which results are given for `COc1ccc(CC2c3cc(OC)c(OC)c(OC)c3CC[N+]2(C)C)cc1Oc1ccc(CC2c3cc4c(c(OC)c3CCN2C)OCO4)cc1` (stereo not drawn)?
A: TGI [7]: > 100 µM; TGI [2]: > 100 µM; TGI [8]: > 100 µM; TGI [9]: > 100 µM; TGI [10]: > 100 µM; TGI [11]: > 100 µM; TGI [12]: > 100 µM; TGI [13]: > 100 µM; TGI [14]: > 100 µM

Q: Which results are given for `c1ccc2sc(SCN(C3CCCCC3)C3CCCCC3)nc2c1`?
A: TGI [8]: > 100 µM; TGI [9]: > 100 µM; TGI [10]: > 100 µM; TGI [11]: > 100 µM; TGI [12]: > 100 µM; TGI [13]: > 100 µM

Q: For `COc1c(Cl)cc(S(=O)O)cc1Cl`, which TGI [1] is on record?
A: > 100 µM

Q: What about the TGI [3] of the same compound?
A: > 100 µM

Q: And the TGI [4]?
A: > 100 µM

Q: Which TGI [3] does the source give for `COc1cc(O)c2c(c1)C(=O)c1cc(C)cc(O)c1C2=O` here?
A: > 100 µM

Q: And the TGI [4]?
A: > 100 µM

Q: What about the TGI [6] of the same compound?
A: > 100 µM

Q: And the TGI [12]?
A: > 100 µM

Q: Which results are given for `O=C(O)C1=NNC(C(=O)O)=NN1`?
A: TGI [2]: > 100 µM; TGI [4]: > 100 µM; TGI [5]: > 100 µM; TGI [6]: > 100 µM

Q: With `Fc1ccc(-c2nnc3sc(COc4ccccc4Cl)nn23)cc1Cl` as the compound, how does the GI50 [8] read?
A: 30.7 µM

Q: And the TGI [8]?
A: > 100 µM

Q: And the GI50 [9]?
A: 29.8 µM

Q: What about the TGI [9] of the same compound?
A: > 100 µM

Q: What about the GI50 [10] of the same compound?
A: 44.5 µM

Q: What about the TGI [10] of the same compound?
A: > 100 µM

Q: What about the GI50 [11] of the same compound?
A: 40.8 µM

Q: What about the TGI [11] of the same compound?
A: > 100 µM

Q: What about the GI50 [12] of the same compound?
A: 23.3 µM

Q: What about the TGI [12] of the same compound?
A: 76.4 µM

Q: And the GI50 [13]?
A: 35.2 µM

Q: And the TGI [13]?
A: 91.6 µM

Q: With `CC(CO)(CO)Nc1ncnc2ccccc12` as the compound, how does the TGI [7] read?
A: > 100 µM

Q: What about the TGI [2] of the same compound?
A: > 100 µM

Q: What about the TGI [8] of the same compound?
A: > 100 µM

Q: And the TGI [9]?
A: > 100 µM

Q: What about the TGI [10] of the same compound?
A: > 100 µM

Q: What about the TGI [11] of the same compound?
A: > 100 µM

Q: And the TGI [12]?
A: > 100 µM

Q: And the TGI [13]?
A: > 100 µM

Q: What does the source list for `Nc1nnc(N)n1NC(=O)C(=O)Nc1ccc([N+](=O)[O-])cc1`?
A: TGI [1]: > 100 µM; TGI [3]: > 100 µM; TGI [4]: > 100 µM; TGI [5]: > 100 µM; TGI [6]: > 100 µM; TGI [12]: > 100 µM

Q: What does the source list for `CC1(O)CC23CC1CCC2(C)C12CCCC(C)(C(=O)O1)C2CC3O` (stereo not drawn)?
A: TGI [7]: > 100 µM; TGI [2]: > 100 µM; TGI [8]: > 100 µM; TGI [9]: > 100 µM; TGI [10]: > 100 µM; TGI [11]: > 100 µM; TGI [12]: > 100 µM; TGI [13]: > 100 µM; TGI [14]: > 100 µM
